# Key:
# Assay type in all cases: in vivo, mouse
# [1] = Plasma triglycerides, cholesterol, free fatty acids, transaminases and lactate in db/db mice (Table 7)
# Method: Seven-week old male C57B1/6J-Lepr db/db mice (Jackson Laboratory, Bar Harbor, Me.) were fed a diet with a fat content of about 14% (Formulab Diet 5008) and were subcutaneously injected with ISIS 116847 (SEQ ID NO: 143), ISIS 141923 (SEQ ID NO: 144), or ISIS 148985 (SEQ ID NO: 118), an antisense inhibitor of glucose-6-phosphatase translocase, […] weeks. […] Saline-injected animals served as controls. 48 hours after the eighth and final dose was administered, mice were sacrificed and target levels were evaluated in liver. RNA isolation and target mRNA expression level quantitation were performed as described by other examples herein.
# To further assess the physiological effects resulting from inhibition of target mRNA, the db/db mice were evaluated at the end of the treatment period for plasma triglycerides, plasma cholesterol, free fatty acids (FFA), lactate and plasma transaminase levels. The transaminases ALT and AST are indicators of liver function. Plasma triglycerides, cholesterol, free fatty acids, and transaminases were measured by routine clinical analyzer instruments (e.g. Olympus Clinical Analyzer, Melville, N.Y.). Results are presented in table 7 as the averages from seven animals per treatment group.
# db/db mice = assay: Oral glucose tolerance test in db/db mice (Table 10)
# Method: The mice described in Example 11 were evaluated for performance on glucose tolerance tests after the 6th dose of saline or antisense oligonucleotides. Through measurement of glucose levels following the administration of a bolus of glucose, tolerance tests assess the physiological response to a glucose challenge.
# Oral glucose tolerance tests (OGTT) were performed during week 3 of treatment with saline, ISIS 116847 (targeted to PTEN, SEQ ID NO: 143), ISIS 149008 (SEQ ID NO: 141), ISIS 148985 (SEQ ID NO: 118), or ISIS 141923 (SEQ ID NO: 144). To provide a baseline glucose level, fasted blood glucose levels were measured before the challenge. Glucose was administered by oral gavage via an 18 g gavage needle at a dose of 1 g/kg. Plasma glucose levels were measured for 30, 60, 90 and 120 minutes post-challenge using an Ascencia Glucometer Elite XL (Bayer, Tarrytown, N.Y.).
# The results are presented in Table 10 as the average plasma glucose level (in mg/dL) per time point from each treatment group (n=7).
# ob/ob mice = assay: Fed and fasted plasma glucose in ob/ob mice; settings: 25 mg/kg s.c. twice weekly; for fasted plasma glucose: week 3, overnight fast, saline 297
# Method: Seven-week old male C57B1/6J-Lep ob/ob mice (Jackson Laboratory, Bar Harbor, Me.) were fed a diet with a fat content of about 22% and were subcutaneously injected with oligonucleotides at a dose of 25 mg/kg two times per week. A total of eight doses were administered. Glucose-6-phosphatase translocase antisense oligonucleotides used were ISIS 148985 (SEQ ID NO: 118) and ISIS 149008 (SEQ ID NO: 141). ISIS 116847 ([…]; incorporated herein as SEQ ID NO: 143), targeted to mouse PTEN, was used as a positive control. Saline-injected animals served as negative controls. Animals were sacrificed 48 hours after the last dose of oligonucleotide was administered, and liver triglycerides, liver glycogen, and target reduction in liver were measured.
# The effects of target inhibition on glucose metabolism were evaluated in the ob/ob mice treated as described above. Routine clinical analyzer instruments (Olympus Clinical Analyzer, Melville, N.Y.) were used to measure plasma glucose. Plasma glucose was measured prior to antisense oligonucleotide treatment (week 0) and during the second and fourth week of treatment. Fasted glucose measurements were made during week 3 after an overnight (about 14 hours) fast. Data are presented as the average from seven animals per treatment group.
# [2] = 25 mg/kg twice weekly 4 weeks (25 mg/mL [sic]), saline 0.8
# [3] = 25 mg/kg twice weekly 4 weeks (25 mg/mL [sic]), saline 56
# [4] = 25 mg/kg twice weekly 4 weeks (25 mg/mL [sic]), saline 59
# [5] = 25 mg/kg twice weekly 4 weeks (25 mg/mL [sic]), saline 108
# [6] = 25 mg/kg twice weekly 4 weeks (25 mg/mL [sic]), saline 152
# [7] = 25 mg/kg twice weekly 4 weeks (25 mg/mL [sic]), saline 213
# [8] = 25 mg/kg twice weekly, week 3, 0 min post-glucose challenge (fasted)
# [9] = 25 mg/kg twice weekly, week 3, 30 min
# [10] = 25 mg/kg twice weekly, week 3, 60 min
# [11] = 25 mg/kg twice weekly, week 3, 90 min
# [12] = 25 mg/kg twice weekly, week 3, 120 min
# [13] = week 0 (prior to treatment), saline 339
# [14] = dose 12.5 mg/mL [sic], twice weekly 4 weeks
# [15] = dose printed 6 mg/mL, twice weekly 4 weeks
sequence,measurement,setting,value
"CCTTCCCTGAAGGTTCCTCC (chemistry not given here) [ISIS 141923, scrambled control oligonucleotide, negative control, reference compound]",Free Fatty Acids,[1]; [2],0.9 mEq/L
same,ALT,[1]; [3],72 IU/L
same,AST,[1]; [4],56 IU/L
same,Lactate,[1]; [5],128 mg/dL
same,Cholesterol,[1]; [6],167 mg/dL
same,Plasma Triglycerides,[1]; [7],166 mg/dL
same,"plasma glucose, OGTT",db/db mice; [8],284 mg/dL
same,"plasma glucose, OGTT",db/db mice; [9],522 mg/dL
same,"plasma glucose, OGTT",db/db mice; [10],445 mg/dL
same,"plasma glucose, OGTT",db/db mice; [11],338 mg/dL
same,"plasma glucose, OGTT",db/db mice; [12],339 mg/dL
"CTGCTAGCCTCTGGATTTGA (chemistry not given here) [ISIS 116847, positive control oligonucleotide targeted to mouse PTEN, reference compound]",fed plasma glucose,ob/ob mice; [13],approximately 339 mg/dL
same,fed plasma glucose,"ob/ob mice; week 2, saline 401",~230 mg/dL
same,fasted plasma glucose,ob/ob mice,approximately 286 mg/dL
same,fed plasma glucose,"ob/ob mice; week 4, saline 372",~188 mg/dL
same,Free Fatty Acids,[1]; [2],0.8 mEq/L
same,ALT,[1]; [3],70 IU/L
same,AST,[1]; [4],62 IU/L
same,Lactate,[1]; [5],131 mg/dL
same,Cholesterol,[1]; [6],161 mg/dL
same,Plasma Triglycerides,[1]; [7],166 mg/dL
same,"plasma glucose, OGTT",db/db mice; [8],181 mg/dL
same,"plasma glucose, OGTT",db/db mice; [9],441 mg/dL
same,"plasma glucose, OGTT",db/db mice; [10],367 mg/dL
same,"plasma glucose, OGTT",db/db mice; [11],305 mg/dL
same,"plasma glucose, OGTT",db/db mice; [12],286 mg/dL
GCTCCATAGCGAGGACTCGA (chemistry not given here) [ISIS 148985],fed plasma glucose,ob/ob mice; [13],approximately 348 mg/dL
same,fed plasma glucose,"ob/ob mice; week 2, saline 401",~315 mg/dL
same,fasted plasma glucose,ob/ob mice,approximately 293 mg/dL
same,fed plasma glucose,"ob/ob mice; week 4, saline 372",~241 mg/dL
same,Free Fatty Acids,[1]; [2],1.1 mEq/L
same,ALT,[1]; [3],73 IU/L
same,AST,[1]; [4],48 IU/L
same,Lactate,[1]; [5],105 mg/dL
same,Cholesterol,[1]; [6],164 mg/dL
same,Plasma Triglycerides,[1]; [7],202 mg/dL
same,"plasma glucose, OGTT",db/db mice; [8],230 mg/dL
same,"plasma glucose, OGTT",db/db mice; [9],494 mg/dL
same,"plasma glucose, OGTT",db/db mice; [10],445 mg/dL
same,"plasma glucose, OGTT",db/db mice; [11],335 mg/dL
same,"plasma glucose, OGTT",db/db mice; [12],355 mg/dL
TATACAAGTCGGTTTGCCCT (chemistry not given here) [ISIS 149008],fed plasma glucose,ob/ob mice; [13],approximately 344 mg/dL
same,fed plasma glucose,"ob/ob mice; week 2, saline 401",~249 mg/dL
same,fasted plasma glucose,ob/ob mice,approximately 237 mg/dL
same,fed plasma glucose,"ob/ob mice; week 4, saline 372",~153 mg/dL
same,Free Fatty Acids,[1]; [2],0.9 mEq/L
same,ALT,[1]; [3],68 IU/L
same,AST,[1]; [4],55 IU/L
same,Lactate,[1]; [5],129 mg/dL
same,Cholesterol,[1]; [6],167 mg/dL
same,Plasma Triglycerides,[1]; [7],197 mg/dL
same,ALT,[1]; [14],64 IU/L
same,AST,[1]; [14],56 IU/L
same,Cholesterol,[1]; [14],172 mg/dL
same,Free Fatty Acids,[1]; [14],1.0 mEq/L
same,Lactate,[1]; [14],127 mg/dL
same,Plasma Triglycerides,[1]; [14],247 mg/dL
same,ALT,[1]; [15],59 IU/L
same,AST,[1]; [15],49 IU/L
same,Cholesterol,[1]; [15],158 mg/dL
same,Free Fatty Acids,[1]; [15],0.9 mEq/L
same,Lactate,[1]; [15],125 mg/dL
same,Plasma Triglycerides,[1]; [15],205 mg/dL
same,"plasma glucose, OGTT","db/db mice; 6 mg/kg twice weekly, week 3, 0 min (fasted)",204 mg/dL
same,"plasma glucose, OGTT","db/db mice; 6 mg/kg twice weekly, week 3, 30 min",518 mg/dL
same,"plasma glucose, OGTT","db/db mice; 6 mg/kg twice weekly, week 3, 60 min",468 mg/dL
same,"plasma glucose, OGTT","db/db mice; 6 mg/kg twice weekly, week 3, 90 min",377 mg/dL
same,"plasma glucose, OGTT","db/db mice; 6 mg/kg twice weekly, week 3, 120 min",330 mg/dL
same,"plasma glucose, OGTT","db/db mice; 12.5 mg/kg twice weekly, week 3, 0 min (fasted)",152 mg/dL
same,"plasma glucose, OGTT","db/db mice; 12.5 mg/kg twice weekly, week 3, 30 min",529 mg/dL
same,"plasma glucose, OGTT","db/db mice; 12.5 mg/kg twice weekly, week 3, 60 min",427 mg/dL
same,"plasma glucose, OGTT","db/db mice; 12.5 mg/kg twice weekly, week 3, 90 min",348 mg/dL
same,"plasma glucose, OGTT","db/db mice; 12.5 mg/kg twice weekly, week 3, 120 min",329 mg/dL
same,area under the curve (AUC) of OGTT glucose values compared to saline (in words),db/db mice; 25 mg/kg,significantly reduced the AUC
same,"plasma glucose, OGTT",db/db mice; [8],227 mg/dL
same,"plasma glucose, OGTT",db/db mice; [9],462 mg/dL
same,"plasma glucose, OGTT",db/db mice; [10],326 mg/dL
same,"plasma glucose, OGTT",db/db mice; [11],272 mg/dL
same,"plasma glucose, OGTT",db/db mice; [12],231 mg/dL
same,glucose tolerance (in words),db/db mice; 6.25 to 25 mg/kg,dose-dependent improvement in glucose tolerance

# Source: US8258114B2, “Modulation of glucose-6-phosphatase translocase expression” (Isis Pharmaceuticals, Inc., priority 2004, dated 2012)
